Assay results taken from ChEMBL document CHEMBL6087415, “Discovery of new fungal jumonji H3K27 demethylase inhibitors for the treatment of Cryptococcus neoformans and Candida auris infections” (Eur J Med Chem, 2025).
Converted amounts (≈) assume the structure as drawn. One block for each molecule: values may come before it. The source made the active and inactive calls. The rule behind the calls is not given here.

Key:
[1] = test system: [Candida] auris; assay: Antifungal activity against Candida auris 0029 assessed as reduction in fungal growth; format: functional; details: Candidozyma auris
[2] = test system: Cryptococcus neoformans; assay: Antifungal activity against Cryptococcus neoformans H99 assessed as reduction in fungal growth; format: functional
[3] = test system: [Candida] auris; assay: Antifungal activity against Candida auris ATCC 15448 assessed as reduction in fungal growth; format: functional; details: Candidozyma auris
[4] = test system: [Candida] auris; assay: Fungicidal activity against Candida auris 0029; format: functional; details: Candidozyma auris
[5] = test system: [Candida] auris; assay: Antibiofilm activity against Candida auris 0029 assessed as inhibition of biofilm formation upto […] microg/ml incubated for 24 hrs by XTT reduction assay; format: functional, organism-based; details: Candidozyma auris, dose <= 64.0 µg/ml
[6] = test system: Cryptococcus neoformans; assay: Antifungal activity against Cryptococcus neoformans H99 assessed as reduction in fungal growth incubated for 72 hrs in presence of 10 uM Fe2+; format: functional
[7] = test system: Cryptococcus neoformans; assay: Antifungal activity against Cryptococcus neoformans H99 assessed as reduction in fungal growth incubated for 72 hrs in presence of 5 uM Fe2+; format: functional
[8] = Cytotoxicity against HUVEC cells; format: toxicity, cell-based; details: human
[9] = test system: Cryptococcus neoformans; assay: Antifungal activity against Cryptococcus neoformans H99 assessed as reduction in fungal growth incubated for 72 hrs in presence of 40 uM Fe2+; format: functional
[10] = Metabolic stability in mouse liver microsome assessed as half life; format: ADME; details: liver microsomes
[11] = test system: [Candida] auris; assay: Synergistic antifungal activity against Candida auris 0029 assessed as inhibition of fungal growth incubated in presence of fluconazole; format: functional, organism-based; details: Candidozyma auris
[12] = Hemolytic activity in rabbit erythrocytes assessed as hemolysis at 10 to 100 uM relative to control; format: toxicity, cell-based, Oryctolagus cuniculus, Erythrocyte; details: dose 10-100 µM, read-out: Activity
[13] = Solubility of compound in MeOH/H2O at pH 7 by HPLC analysis; format: physicochemical
[14] = test system: Cryptococcus neoformans; assay: Antibiofilm activity against Cryptococcus neoformans H99 assessed as inhibition of biofilm formation upto […] microg/ml incubated for 24 hrs by XTT reduction assay; format: functional, organism-based; details: dose <= 64.0 µg/ml
[15] = test system: Cryptococcus neoformans; assay: Fungicidal activity against Cryptococcus neoformans H99; format: functional
[16] = test system: Candida albicans; assay: Synergistic antifungal activity against Candida albicans assessed as inhibition of fungal growth incubated in presence of fluconazole; format: functional, organism-based
[17] = test system: [Candida] auris; assay: Antibiofilm activity against Candida auris 0029 assessed as inhibition of biofilm formation at 64 microg/ml incubated for 24 hrs by XTT reduction assay; format: functional; details: Candidozyma auris
[18] = test system: Cryptococcus neoformans; assay: Antibiofilm activity against Cryptococcus neoformans H99 assessed as inhibition of capsule formation at 1 microg/ml incubated for 48 hrs by laser confocal microscopic analysis; format: functional, organism-based; details: dose 1.0 µg/ml
[19] = Inhibition of Candida auris 0029 JMJD3 by absorbance based analysis; design: species or system Candidozyma auris
[20] = test system: Cryptococcus neoformans; assay: Antifungal activity against Cryptococcus neoformans H99 assessed as reduction in fungal growth incubated for 72 hrs in presence of 20 uM Fe2+; format: functional
[21] = Inhibition of Cryptococcus neoformans H99 JMJD3 by absorbance based analysis
[22] = test system: Cryptococcus neoformans; assay: Antifungal activity against Cryptococcus neoformans H99 assessed as inhibition of cell growth at 4 microg/ml measured for 72 hrs; format: functional, organism-based; details: dose 4.0 µg/ml
[23] = test system: [Candida] auris; assay: Antifungal activity against Candida auris 0029 assessed as inhibition of cell growth at 16 microg/ml measured for 72 hrs; format: functional; details: Candidozyma auris
[24] = test system: Cryptococcus neoformans; assay: Antibiofilm activity against Cryptococcus neoformans H99 assessed as inhibition of biofilm formation at 1 microg/ml incubated for 24 hrs by XTT reduction assay; format: functional, organism-based; details: dose 1.0 µg/ml
[25] = test system: Cryptococcus neoformans; assay: Antifungal activity against Cryptococcus neoformans H99 assessed as reduction in fungal growth incubated for 72 hrs in presence of 1 uM Fe2+; format: functional
[26] = Metabolic stability in mouse liver microsome assessed as clearance; format: ADME; details: liver microsomes, read-out: CLH
[27] = test system: Cryptococcus neoformans; assay: Antifungal activity against Cryptococcus neoformans H99 assessed as reduction in fungal growth incubated for 72 hrs in presence of 80 uM Fe2+; format: functional

MIC80 [1]: > 64 µg/mL
MIC80 [2]: > 64 µg/mL
MIC80 [3]: > 64 µg/mL
Structure (SMILES): FC(F)(F)c1ccc(N/N=C(/c2ccccc2)c2ccccn2)cc1

MIC80 [1]: > 64 µg/mL
MIC80 [2]: 32 µg/mL (≈ 105 µM)
MIC80 [3]: 64 µg/mL (≈ 211 µM)
Structure (SMILES): Cc1ccc(NC(=O)C(c2ccccc2)c2ccccn2)nc1 (centres undefined)

MIC80 [1]: > 64 µg/mL
MIC80 [2]: 32 µg/mL (≈ 93.7 µM)
MIC80 [3]: > 64 µg/mL
Structure (SMILES): FC(F)(F)c1ccc(N/N=C(\c2ccccc2)c2ccccn2)cc1

MIC [6]: 8 µg/mL
MIC [7]: 4 µg/mL
MIC [9]: 64 µg/mL
half-life [10]: 34.3 min
solubility [13]: 0.54 µg/mL (≈ 1.75 µM)
MIC80 [1]: 2 µg/mL (≈ 6.48 µM)
MIC80 [2]: 0.5 µg/mL (≈ 1.62 µM)
IC50 [19]: 5 nM
MIC [20]: 8 µg/mL
IC50 [21]: 168 nM
MIC [25]: 1 µg/mL
CLint scaled [26]: 159 mL/min/kg
MIC80 [3]: 0.125 µg/mL (≈ 0.405 µM)
MIC [27]: 64 µg/mL
Structure (SMILES): Clc1ccc(N/N=C(\c2ccccc2)c2ccccn2)nc1
MFC [4]: 256 µg/mL (≈ 829 µM)
Activity [5]: Active
IC50 [8]: 79 nM
Activity [11]: inactive
hemolysis at 100 µM [12]: < 3%
Activity [14]: Active
MFC [15]: 16 µg/mL (≈ 51.8 µM)
Activity [16]: inactive
inhibition at 64 µg/mL [17]: 100%
Activity [18]: Active
Activity [22]: Active
inhibition at 16 µg/mL [23]: 100%
Activity [24]: inactive

MIC80 [1]: > 64 µg/mL
MIC80 [2]: 64 µg/mL (≈ 212 µM)
MIC80 [3]: > 64 µg/mL
Structure (SMILES): Cc1ccnc(-n2c(=O)n(-c3ccccn3)c3ccccc32)c1

MIC80 [1]: > 64 µg/mL
MIC80 [2]: 32 µg/mL (≈ 93.5 µM)
MIC80 [3]: > 64 µg/mL
Structure (SMILES): Clc1ccc(N/N=C(\c2ccc(Cl)cc2)c2ccccn2)cc1

MIC80 [1]: 32 µg/mL (≈ 110 µM)
MIC80 [2]: 32 µg/mL (≈ 110 µM)
MIC80 [3]: 8 µg/mL (≈ 27.5 µM)
Structure (SMILES): Fc1ccc(N/N=C(\c2ccccc2)c2ccccn2)cc1

MIC80 [1]: > 64 µg/mL
MIC80 [2]: 64 µg/mL (≈ 189 µM)
MIC80 [3]: > 64 µg/mL
Structure (SMILES): S=c1n(-c2ccccn2)c2ccccc2n1-c1ccc(Cl)cn1

MIC80 [1]: 64 µg/mL (≈ 220 µM)
MIC80 [2]: 32 µg/mL (≈ 110 µM)
MIC80 [3]: 32 µg/mL (≈ 110 µM)
Structure (SMILES): Fc1ccc(N/N=C(/c2ccccc2)c2ccccn2)cc1

MIC80 [1]: 4 µg/mL (≈ 13 µM)
MIC80 [2]: 1 µg/mL (≈ 3.24 µM)
MIC80 [3]: 0.5 µg/mL (≈ 1.62 µM)
Structure (SMILES): Clc1cccnc1N/N=C(\c1ccccc1)c1ccccn1
